Experimental data taken from ChEMBL document CHEMBL2311509, “Synthesis and antiproliferative evaluation of 3-phenylquinolinylchalcone derivatives against non-small cell lung cancers and breast cancers” (Eur J Med Chem, 2013).
Calls of active or inactive are those of the source. The rule behind the calls is not given here.

How the values were obtained:
SK-BR-3 = test: Antiproliferative activity against human SKBR3 cells after 72 hrs by XTT assay; assay type: functional, cell-based; settings: SK-BR-3, 72 h
MDA-MB-231 [1] = test: Antiproliferative activity against human MDA-MB-231 cells after 72 hrs by XTT assay; assay type: functional, cell-based; settings: MDA-MB-231, 72 h
[2] = Antiproliferative activity against human H1299 cells after 72 hrs by XTT assay; assay type: functional, cell-based; settings: NCI-H1299, 72 h
A549 = test: Antiproliferative activity against human A549 cells after 72 hrs by XTT assay; assay type: functional, cell-based; settings: A549, 72 h
MCF7 = test: Antiproliferative activity against human MCF7 cells after 72 hrs by XTT assay; assay type: functional, cell-based; settings: MCF7, 72 h
[3] = Antiproliferative activity against human H184B5F5/M10 cells after 72 hrs by XTT assay; assay type: functional, cell-based; settings: H184B5F5/M10, 72 h
[4] = Antiproliferative activity against human H460 cells after 72 hrs by XTT assay; assay type: functional, cell-based; settings: NCI-H460, 72 h
MDA-MB-231 [5] = test: Induction of cell cycle arrest in human MDA-MB-231 cells assessed as accumulation at subG1 phase at 1 uM after 24 hrs by flow cytometry (reference value: 3.3 +/- 1.5%); assay type: functional
MDA-MB-231 [6] = test: Induction of cell cycle arrest in human MDA-MB-231 cells assessed as accumulation at G2/M phase at 0.1 uM after 24 hrs by flow cytometry (reference value: 22.1 +/- 3.1%); assay type: functional
H184B5F5/M10 = test: Antiproliferative activity against human H184B5F5/M10 cells at 0.1 to 5 uM after 12 to 48 hrs by XTT assay; assay type: functional, cell-based
MDA-MB-231 [7] = test: Induction of cell cycle arrest in human MDA-MB-231 cells assessed as accumulation at G1 phase at 0.5 uM after 24 hrs by flow cytometry (reference value: 63.1 +/- 2.7%); assay type: functional
MDA-MB-231 [8] = test: Induction of morphological changes in human MDA-MB-231 cells at 0.5 uM after 24 hrs by light microscopy; assay type: functional, cell-based
MDA-MB-231 [9] = test: Induction of cell cycle arrest in human MDA-MB-231 cells assessed as accumulation at G2/M phase at 1 uM after 24 hrs by flow cytometry (reference value: 22.1 +/- 3.1%); assay type: functional
MDA-MB-231 [10] = test: Induction of cell cycle arrest in human MDA-MB-231 cells assessed as accumulation at S phase at 0.1 uM after 24 hrs by flow cytometry (reference value: 12.4 +/- 2.1%); assay type: functional
MDA-MB-231 [11] = test: Induction of apoptosis in human MDA-MB-231 cells assessed as caspase 3 activation at 0.1 to 1 uM after 24 hrs by immunoblot method; assay type: functional, cell-based
MDA-MB-231 [12] = test: Induction of cell cycle arrest in human MDA-MB-231 cells assessed as accumulation at G1 phase at 1 uM after 24 hrs by flow cytometry (reference value: 63.1 +/- 2.7%); assay type: functional
MDA-MB-231 [13] = test: Antiproliferative activity against human MDA-MB-231 cells at 0.1 to 5 uM by XTT assay; assay type: functional, cell-based; settings: TDE = time-dependent effect
MDA-MB-231 [14] = test: Induction of cell cycle arrest in human MDA-MB-231 cells assessed as accumulation at G2/M phase at 0.5 uM after 24 hrs by flow cytometry (reference value: 22.1 +/- 3.1%); assay type: functional
MDA-MB-231 [15] = test: Induction of apoptosis in human MDA-MB-231 cells assessed as PARP cleavage at 0.1 to 1 uM after 24 hrs by immunoblot method; assay type: functional, cell-based
MDA-MB-231 [16] = test: Induction of cell cycle arrest in human MDA-MB-231 cells assessed as accumulation at subG1 phase at 0.5 uM after 24 hrs by flow cytometry (reference value: 3.3 +/- 1.5%); assay type: functional
MDA-MB-231 [17] = test: Induction of cell cycle arrest in human MDA-MB-231 cells assessed as accumulation at S phase at 1 uM after 24 hrs by flow cytometry (reference value: 12.4 +/- 2.1%); assay type: functional
MDA-MB-231 [18] = test: Antiproliferative activity against human MDA-MB-231 cells after 48 hrs by XTT assay; assay type: functional, cell-based
MDA-MB-231 [19] = test: Induction of cell cycle arrest in human MDA-MB-231 cells assessed as accumulation at subG1 phase at 0.1 uM after 24 hrs by flow cytometry (reference value: 3.3 +/- 1.5%); assay type: functional
MDA-MB-231 [20] = test: Induction of cell cycle arrest in human MDA-MB-231 cells assessed as accumulation at G1 phase at 0.1 uM after 24 hrs by flow cytometry (reference value: 63.1 +/- 2.7%); assay type: functional
MDA-MB-231 [21] = test: Induction of cell cycle arrest in human MDA-MB-231 cells assessed as accumulation at S phase at 0.5 uM after 24 hrs by flow cytometry (reference value: 12.4 +/- 2.1%); assay type: functional
MDA-MB-231 [22] = test: Growth inhibition of human MDA-MB-231 cells; assay type: functional
[23] = Growth inhibition of human Hep3B cells; assay type: functional, Hep 3B2
[24] = Growth inhibition of human H1299 cells; assay type: functional; settings: NCI-H1299

SMILES | IC50 (SK-BR-3) [µM] | IC50 (MDA-MB-231 [1]) [µM] | IC50 (A549) [µM] | IC50 (MCF7) [µM] | IC50 [2] [µM] | IC50 [3] [µM] | IC50 [4] [µM] | other results
COc1ccc(-c2cc3ccccc3nc2/C=C/C(=O)c2cc(OC)cc(OC)c2)cc1 | 0.47 | 0.92 | 9.52 | 3.23 | 0.93 | 6.66 | 7.52 | 
COc1ccc(-c2cc3ccccc3nc2/C=C/C(=O)c2ccc(OC)c(OC)c2)cc1 | 3.26 | 4.79 | 8.86 | 6.03 | 1.05 | 7.24 | 7.54 | 
COc1ccc(-c2cc3ccccc3nc2C=O)cc1 | > 10 | > 10 | > 10 | > 10 | > 10 | > 10 | > 10 | 
COc1ccc(-c2cc3ccccc3nc2/C=C/C(=O)c2ccccn2)cc1 | 0.37 | 0.74 | 6.14 | 0.81 | 0.66 | 4.14 | 6.26 | 
COc1ccc(-c2cc3ccccc3nc2/C=C/C(=O)c2cccs2)cc1 | 0.8 | 0.41 | 0.92 | 1.03 | 0.72 | 7.03 | 5.44 | 
COc1ccc(-c2cc3ccccc3nc2/C=C/C(=O)c2c(OC)cccc2OC)cc1 | 3.83 | 5.63 | 7.41 | 4.52 | 4.71 | 4.47 | 6.63 | 
COc1ccc(-c2cc3ccccc3nc2/C=C/C(=O)c2cnc(N)nc2C)cc1 | > 10 | > 10 | > 10 | > 10 | > 10 | > 10 | > 10 | 
COc1ccc(-c2cc3ccccc3nc2/C=C/C(=O)c2c[nH]c3ccccc23)cc1 | 3.45 | > 10 | > 10 | > 10 | > 10 | > 10 | 8.01 | 
COc1ccc(-c2cc3ccccc3nc2/C=C/C(=O)c2sccc2N)cc1 | > 10 | > 10 | > 10 | > 10 | > 10 | > 10 | > 10 | 
Fc1ccc2nc(-c3ccc(OCCN4CCCCC4)cc3)c(-c3ccc(OCCN4CCCCC4)cc3)cc2c1 |  |  |  |  |  |  |  | GI50 (MDA-MB-231 [22]): 0.72 µM; GI50 [23]: 0.71 µM; GI50 [24]: 1.46 µM
COc1ccc(-c2cc3ccccc3nc2/C=C/C(=O)c2ccc(OC)cc2OC)cc1 | 2.26 | 3.21 | 7.99 | 6.26 | 3.77 | 6.11 | 7.04 | 
CC[C@@]1(O)C(=O)OCc2c1cc1n(c2=O)Cc2cc3c(CN(C)C)c(O)ccc3nc2-1 [TOPOTECAN] | 8.91 | < 0.1 |  | 5.97 | 6.02 | > 10 | 7.29 | 

Second part, led by results:

IC50 (SK-BR-3) [µM] | IC50 (MDA-MB-231 [1]) [µM] | IC50 (A549) [µM] | IC50 (MCF7) [µM] | SMILES | IC50 [2] [µM] | IC50 [3] [µM] | IC50 [4] [µM] | other results
0.59 | 0.84 | 6.31 | 4.11 | COc1ccc(-c2cc3ccccc3nc2/C=C/C(=O)c2ccc([N+](=O)[O-])cc2)cc1 | 0.77 | 6.1 | 6.47 | 
3.88 | 6.35 | 7.44 | 6.71 | COc1ccc(-c2cc3ccccc3nc2/C=C/C(=O)c2ccc(O)cc2)cc1 | 8.97 | 5.69 | 6.93 | 
> 10 | > 10 | > 10 | > 10 | COc1ccc(-c2cc3ccccc3nc2/C=C/C(=O)c2ccc[nH]2)cc1 | > 10 | > 10 | > 10 | 
9.28 | 7.54 | 8.5 | 7.38 | COc1ccc(C(=O)/C=C/c2nc3ccccc3cc2-c2ccc(OC)cc2)cc1 | 6.42 | > 10 | > 10 | 
8.56 | 7.51 | 7.53 | 6.92 | COc1ccc(-c2cc3ccccc3nc2/C=C/C(=O)c2ccc(N)cc2)cc1 | 6.51 | 9.29 | 7.4 | 
0.52 | < 0.1 | 6.25 | 0.91 | COc1ccc(-c2cc3ccccc3nc2/C=C/C(=O)c2ccc(Br)s2)cc1 | 0.71 | 9.38 | 5.17 | Activity (MDA-MB-231 [5]): 33.4%; Activity (MDA-MB-231 [6]): 25.7%; Activity (H184B5F5/M10): inactive; Activity (MDA-MB-231 [7]): 39.6%; Activity (MDA-MB-231 [8]): Active; Activity (MDA-MB-231 [9]): 30.1%; Activity (MDA-MB-231 [10]): 13.1%; Activity (MDA-MB-231 [11]): Dose-dependent effect; Activity (MDA-MB-231 [12]): 30.1%; Activity (MDA-MB-231 [13]): tde; Activity (MDA-MB-231 [14]): 28.3%; Activity (MDA-MB-231 [15]): Dose-dependent effect; Activity (MDA-MB-231 [16]): 23.5%; Activity (MDA-MB-231 [17]): 7.2%; Activity (MDA-MB-231 [18]): Dose-dependent effect; Activity (MDA-MB-231 [19]): 8.1%; Activity (MDA-MB-231 [20]): 54.3%; Activity (MDA-MB-231 [21]): 10.1%
0.81 | 0.83 | 8.32 | 5.45 | COc1ccc(-c2cc3ccccc3nc2/C=C/C(=O)c2ccc(F)cc2)cc1 | 0.82 | > 10 | 6.99 | 
0.66 | 1.06 | 8.21 | 6.01 | COc1ccc(-c2cc3ccccc3nc2/C=C/C(=O)c2ccsc2)cc1 | 1.22 | 6.39 | 7.08 | 
0.64 | 0.63 | 6.13 | 0.71 | COc1ccc(-c2cc3ccccc3nc2/C=C/C(=O)c2ccco2)cc1 | 0.73 | 6.24 | 6.43 | 
0.7 | 0.86 | 7.41 | 4.04 | COc1ccc(-c2cc3ccccc3nc2/C=C/C(=O)c2ccccc2)cc1 | 1.41 | 8.56 | 6.67 | 
